According to patent publication US20260248763A1 (BIO GENUINE (SHANGHAI) BIOTECH CO., LTD, priority 2023, published 2026):
Read-outs that look alike come from different tables or passages of the source.

What was measured:
V1aR = molecular target: T1, V1aR (Homo sapiens, UniProt P37288); experiment: Ca2+ mobilization in cells stably expressing V1aR (FLIPR, antagonist mode); assay type: cell-based; settings: V1a-CHO stably transfected cell line
T1 construct: expressed in transfected cells; host or cells: V1a-CHO stably transfected cell line
T1 sequence (P37288 whole entry, species assumed): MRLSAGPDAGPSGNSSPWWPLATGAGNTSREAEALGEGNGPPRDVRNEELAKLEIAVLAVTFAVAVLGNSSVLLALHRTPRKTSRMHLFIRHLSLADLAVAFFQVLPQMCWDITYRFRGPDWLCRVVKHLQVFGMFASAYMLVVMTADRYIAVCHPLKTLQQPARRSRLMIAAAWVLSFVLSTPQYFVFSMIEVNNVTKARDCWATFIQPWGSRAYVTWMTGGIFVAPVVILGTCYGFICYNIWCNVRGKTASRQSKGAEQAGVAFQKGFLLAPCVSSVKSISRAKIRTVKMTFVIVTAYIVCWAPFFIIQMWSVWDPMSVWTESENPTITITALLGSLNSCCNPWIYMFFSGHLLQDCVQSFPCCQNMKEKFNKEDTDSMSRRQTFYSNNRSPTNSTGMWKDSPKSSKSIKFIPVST
Text: Test Example 2. Determination of the Effect of the Compound of the Present Disclosure on Ca^2+ Mobilization in Cells Stably Expressing V1aR
To measure the antagonistic effect of the compound of the present disclosure on V1aR activity expressed in the V1a-CHO stably transfected cell line.
• F-12 (Hyclone, SH30026.01) • FLIPR CALCIUM 6 ASSAY KIT (Molecul Device, R8191) • Fetal Bovine Serum (FBS) (AusGeneX, FBS500-S) • Hygromycin B (Solarbio, H8080-1g) • DMSO (Sigma, D4540) • HBSS (Gibco 14025-092) • Probenecid (MCE, HY—B0545) • 0.36 mL 96 Round V-bottom Deep Well Plates for Laboratory (Biaosen P-0.36-BSA-96) • 384-well conical bottom polypropylene plate (Nunc, 264573) • Corning® 384-well Flat Clear Bottom Black Polystyrene TC-treated Microplates (Corning 3764)
• Biological safety cabinet (ECSO, AC2-6S1-TC) • Carbon dioxide cell incubator (ECSO, CCI-170B-8) • Inverted microscope (Olympus, CKX53) • Microplate low-speed centrifuge (Xiangzhi, TD5B) • FLIPR® Penta (Molecul Device, 5.0)
• 1. Cell plating: V1a-CHO cells were digested and harvested, resuspended and counted, and then inoculated into a 384-well cell plate at a density of: 1.2×10^4 cells/25 μL/well. The cell plate was then incubated in an incubator at 37° C. with 5% CO2 for about 16-20 h. • 2. The next day: after preparing Assay Buffer, 20× Component A was thawed to room temperature, diluted with Assay buffer to 1× loading buffer, and placed at room temperature for later use. • 3. The medium was removed from the cell plate, and 40 μL of 1× loading buffer was quickly added to each well. After centrifugation, the cell plate was incubated at 37° C. in the dark for 120 minutes. • 4. The serially diluted positive compound, serially diluted test compound, and agonist working solution were formulated. After mixing the serially diluted positive compound/serially diluted test compound with the agonist at a 1:1 ratio, 20 μL per well was transferred to a 384-well compound source plate. • 5. The cell plate, agonist source plate, and pipette tips were placed into their respective positions in the FLIPR instrument. Using FLIPR Tetra, 10 μL of the diluted agonist from Step 4 was added to each test well, and the data were collected at a wavelength of 515 nm-575 nm. • 6. The signal values were plotted against the compound concentrations, and the curve fitting and IC50 calculation were performed using the nonlinear regression method of GraphPad Prism software.

[1] = Pharmacokinetic determination in SD rats; assay type: in vivo; settings: rat, female SD rats, plasma; for AUC(0-t): read-out: Area under the curve AUC0-t; for half-life: read-out: Half-life T1/2 (converted)
Experimental: Test Example 3: Pharmacokinetic Determination in SD Rats
In this study, female SD rats were selected as test animals. The LC/MS/MS method was used to quantitatively determine the plasma drug concentrations of the test compounds at different time points after intravenous injection (2 mg/kg) or oral administration (5 mg/kg) in rats, so as to evaluate the pharmacokinetic profile of the test drugs in rats.
(§1) The example compounds of the present disclosure, made in house.
(§2) SD rats (female, 180-220 g, 6-8 weeks old, purchased from Beijing Vital River Laboratory Animal Technology Co., Ltd., with animal production license number SCXK (Beijing) 2021-0006).
Vehicle for intravenous administration: 5% DMSO+10% Solutol+85% Saline.
Vehicle for oral administration: 5% DMSO+95% PEG400.
The test compound, formulated as a clear solution or suspension, was administered to overnight-fasted SD rats via tail vein injection or oral gavage. For intravenous administration, blood samples (0.25 mL) were collected via jugular vein puncture at pre-dose (0 h) and 0.083, 0.25, 0.5, 1, 2, 4, 6, 8, and 24 h post-dose. The samples were placed into sodium heparin anticoagulant tubes, and the mixture was vortexed thoroughly and centrifuged at 6,000 rpm for 3 minutes at 4° C. For oral gavage, blood samples were collected via jugular vein puncture at pre-dose (0 h) and 0.083, 0.25, 1, 2, 4, 6, 8, and 24 h post-dose. The samples were placed into sodium heparin anticoagulant tubes, and the mixture was vortexed thoroughly and centrifuged at 6,000 rpm for 3 minutes. Plasma drug concentrations were determined using the LC-MS/MS method, and the relevant pharmacokinetic parameters were calculated using the non-compartmental model with linear-log trapezoidal method in Phoenix WinNonlin 8.2.0 pharmacokinetic software.

[2] = Blood-brain distribution determination in SD rats; assay type: in vivo; settings: female SD rats, oral, 10 mg/kg
Experimental: Test Example 4: Blood-Brain Distribution Determination in SD Rats
In this study, female SD rats were selected as test animals. The LC/MS/MS method was used to quantitatively determine the drug concentrations of the test compounds in plasma and brain tissues at three different time points (0.5 h, 2 h, 4 h or 6 h) after oral administration (5 mg/kg or 10 mg/kg) in rats, so as to evaluate the pharmacokinetic profile of the test drugs in rats.
as §1, §2
Vehicle for oral administration: 5% DMSO+95% PEG400 or a mixture of (50% Labrasol+50% Water).
The test compound, formulated as a clear solution or suspension, was administered to overnight-fasted SD rats via oral gavage. For oral gavage, blood samples (0.25 mL) were collected via jugular vein puncture at pre-dose (0 h) and 0.5 h, 2 h, 4 h or 6 h post-dose. The samples were placed into sodium heparin anticoagulant tubes. After collection, the blood samples were placed on wet ice and centrifuged within 1 hour to separate the plasma. The separated plasma was stored frozen in a −80° C. freezer. After blood collection, the animals were euthanized by cervical dislocation. The whole brain tissue was dissected out. The collected brain tissue was first rinsed with physiological saline, blotted dry with absorbent paper, and then stored frozen in a −80° C. freezer. Prior to analysis, the brain tissue samples and plasma samples were taken out from the −80° C. freezer. After the brain tissue samples were completely thawed, a given amount of brain tissue was weighed, and 50% methanol/water was added for homogenization. Drug concentrations in plasma and brain tissues were determined using the LC-MS/MS method, and the relevant pharmacokinetic parameters were calculated using the non-compartmental model with linear-log trapezoidal method in Phoenix WinNonlin 8.2.0 pharmacokinetic software.

OTR = molecular target: T2, OTR (Homo sapiens, UniProt P30559); experiment: Ca2+ mobilization in cells stably expressing OTR (FLIPR, antagonist mode); assay type: cell-based; settings: OTR/HEK293 stably transfected cell line
T2 construct: expressed in transfected cells; host or cells: OTR/HEK293 stably transfected cell line
T2 sequence (P30559 1-389): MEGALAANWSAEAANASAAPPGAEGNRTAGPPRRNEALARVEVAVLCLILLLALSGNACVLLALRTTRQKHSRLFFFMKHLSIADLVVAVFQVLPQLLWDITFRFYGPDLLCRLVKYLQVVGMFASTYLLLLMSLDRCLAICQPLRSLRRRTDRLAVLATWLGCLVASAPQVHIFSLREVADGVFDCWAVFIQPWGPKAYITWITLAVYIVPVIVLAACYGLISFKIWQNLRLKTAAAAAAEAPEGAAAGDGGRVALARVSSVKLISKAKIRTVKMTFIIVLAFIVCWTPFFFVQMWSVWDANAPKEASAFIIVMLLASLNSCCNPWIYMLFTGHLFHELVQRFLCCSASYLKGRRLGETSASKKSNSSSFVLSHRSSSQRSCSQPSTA
Outline: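 OTR/HEK293 stable cells (20,000 per well) were loaded with Fluo-4 Direct plus probenecid. Cells were pre-exposed to 10-point, 3-fold compound dilutions before agonist challenge at EC80, determined beforehand per cell line. FLIPR calcium fluorescence (Max-Min) was fitted in Prism.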

SMILES | IC50 (V1aR) | AUC(0-t) ([1]; 2 mg/kg, IV (2 mpk)) | AUC(0-t) ([1]; 5 mg/kg, PO (5 mpk)) | clearance ([1]; 2 mg/kg, IV (2 mpk), read-out: Clearance Cl) | half-life ([1]; 2 mg/kg, IV (2 mpk)) | half-life ([1]; 5 mg/kg, PO (5 mpk)) | Brain tissue area under the curve AUC0-t [2] | Kp ([2]; rat, brain/plasma, read-out: Brain/plasma exposure ratio) | AUC(0-t) ([2]; rat, plasma, read-out: Plasma area under the curve AUC0-t) | IC50 (OTR)
CO/N=C1/C[C@@H](CO)N(C(=O)c2ccc(-c3ccccc3C)cc2)C1 [Nolasiban, reference compound] | 389 nM | 3050 ng·h/mL | 7700 ng·h/mL | 11.1 mL/min/kg | 2.8 h | 2.71 h | 18727 ng·h/g | 3.29 | 5700 ng·h/mL | 
CO/N=C1/C[C@@H](C(C)O)N(C(=O)c2ccc(-c3ccccc3C)cc2)C1 (mixture of isomers) [Example C0067, (S, Z, RS)-(2-(1-Hydroxyethyl)-4-(methoxyimino)pyrrolidin-1-yl)(2′-methyl-[1,1′-biphenyl]-4-yl)methanone] | 223 nM |  |  |  |  |  |  |  |  | 13 nM
